Assay results from US11696907B2, “Wound healing composition” (WINERGEN TECHNOLOGIES INC., LTD., priority 2016, dated 2023).

How the values were obtained:
certain wounds = assay: Effect of unsaturated fatty acids on wounds; parameters: species or system patients; conditions: in vivo
wounds and skin damage = assay: Treatment effect of palmitic acid and behenic acid alone versus combined

SMILES	inflammation to certain wounds, causing pain in some patients (certain wounds)	treatment effect of either acid alone (wounds and skin damage)
CCCCC/C=C\C/C=C\C/C=C\C/C=C\CCCC(=O)O [arachidonic acid]	harmful inflammation	
CCCCC/C=C\C/C=C\CCCCCCCC(=O)O [linoleic acid]	harmful inflammation	
CCCCCCCCCCCCCCCC(=O)O [palmitic acid]		less significant
CCCCCCCCCCCCCCCCCCCCCC(=O)O [behenic acid]		less significant
